Experiments:
[1] = Haemodynamic profile in anaesthetized rats; type: in vivo, rat; parameters: Dhr^20 (i.v. dose which reduces heart rate by ca. 20%) / Dhr^20 (dose which reduces heart rate by ca. 20%): unit not given here
Excerpt: The effect of compounds of the invention on heart rate, systolic left ventricular pressure, left ventricular dp/dt max and mean arterial blood pressure was investigated so as to obtain information on the anti-anginal potential of these compounds, by reducing the oxygen demand of the ischaemic heart.
*Dhr^20 = i.v. dose which reduces heart rate by ca. 20%
**LVP = systolic left ventricular pressure
***BP = mean arterial blood pressure
^a = i.d. administration

coronary spasm = assay: Vasopressin test in anaesthetized rats (coronary spasm, ST-segment elevation in the ECG); type: in vivo, rat; details: 0.6 g/kg i.d., vasopressin (Lysopressin 1 I.U./kg) i.v.
Method: Vasopressin (Lysopressin: 1 I.U./kg) was administered intravenously in order to provoke coronary spasm (ST-segment elevation in the ECG).
The ability of test compounds to reduce coronary spasm is taken as a measure of their anti-anginal potential in spasm-induced angina pectoris. (Ref. Drug. Res. 33(11), 8,1117-1121 (1983)).

[2] = i.v. at Dhr^20, anaesthetized rat

Compound | % effect of Dhr^20 on BP (mean arterial blood pressure) [1, 2] | % effect of Dhr^20 on LVP (systolic left ventricular pressure) [1, 2] | % effect of Dhr^20 on dp/dtmax (left ventricular dp/dt max) [1, 2] [%] | Dhr^20 (i.v. dose which reduces heart rate by ca. 20%) ([1]; i.v., anaesthetized rat) | i.v. duration of action on heart rate (rat) ([1]; i.v., anaesthetized rat) [min] | % effect of Dhr^20 on BP (mean arterial blood pressure) ([1]; rat, in vivo) [%] | Dhr^20 (dose which reduces heart rate by ca. 20%) ([1]; rat, in vivo) | duration of action on heart rate (rat) ([1]; rat, in vivo) [min] | % effect of Dhr^20 on BP (mean arterial blood pressure) ([1]; rat, in vivo, iv) [%] | % effect of Dhr^20 on LVP (systolic left ventricular pressure) ([1]; rat, in vivo, iv) [%] | Dhr^20 (i.v. dose which reduces heart rate by ca. 20%) ([1]; rat, in vivo, iv) | i.v. duration of action on heart rate (rat) ([1]; rat, in vivo, iv) [min] | active against coronary spasm (coronary spasm)
COc1ccc(CCN(C)CCCN(C(=O)NCc2ccccc2)c2ccc(OC)c(OC)c2)cc1OC [Example E30, (N-[3,4-Dimethoxyphenyl]-N-3-[N'-2-(3,4-dimethoxyphenyl)-ethyl-N'-methylamino]-propyl)-N"-benzylurea] | -15% | -10% | -20 | 1.6 | 10 | – | – | – | – | – | – | – | –
CCCCCN(CCCN(C)CCc1ccc(OC)c(OC)c1)c1ccc(OC)c(OC)c1 [Example E34, (N-[3,4-Dimethoxyphenyl]-N-3-[N'-2-(3,4-dimethoxyphenyl)-ethyl-N'-methylamino]-propyl)-n-pentylamine] | -9% | -9% | -10 | 1.6 | 5 to 10 | – | – | – | – | – | – | – | –
COc1ccc(CCN(C)CCCN(c2ccc(OC)c(OC)c2)c2ncc([N+](=O)[O-])cc2[N+](=O)[O-])cc1OC [Example E44] | -10% | -6% | -8 | 3.2 | 10 | – | – | – | – | – | – | – | –
COc1ccc(CCN(C)CCCN(Cc2ccc([N+](=O)[O-])cc2)c2ccc(OC)c(OC)c2)cc1OC [Example E6, (N-[3,4-Dimethoxyphenyl]-N-3-[N'-2-(3,4-dimethoxyphenyl)-ethyl-N'-methylamino]-propyl)-(4-nitro)-benzylamine] | +1% | +5% | -5 | 0.4 | 60 | – | – | – | – | – | – | – | –
COc1ccc(CCN(C)CCN(C(=O)NC(C)c2ccccc2)c2ccc(OC)c(OC)c2)cc1OC (centres unmarked) [Example E32] | -13% | -7% | -3 | 3.2 | 10 | – | – | – | – | – | – | – | –
COc1ccc(CCN(C)CCCN(Cc2ccccc2)c2ccc(OC)c(OC)c2)cc1OC [Example E4, (N-[3,4-Dimethoxyphenyl]-N-3-[N'-2-(3,4-dimethoxyphenyl)-ethyl-N'-methylamino]-propyl)-benzylamine] | -6% | -3% | -12 | 3.2 | 10 | – | – | – | – | – | – | – | –
CCCCC(=O)N(CCCN(C)CCc1ccc(OC)c(OC)c1)c1ccc(OC)c(OC)c1 [Example E12, (N-[3,4-Dimethoxyphenyl]-N-3-[N'-2-(3,4-dimethoxyphenyl)-ethyl-N'-methylamino]-propyl)-pentanoic acid amide] | -11% | -6% | -6 | 1.6 | 10 | – | – | – | – | – | – | – | –
COc1ccc(CCN(C)CCCN(C(=O)c2ccc([N+](=O)[O-])cc2)c2ccc(OC)c(OC)c2)cc1OC [Example E50, (N-[3,4-Dimethoxyphenyl]-N-3-[N'-2-(3,4-dimethoxyphenyl)-ethyl-N'-methyl-amino]-propyl)-4-nitrobenzamide] | – | – | – | – | – | -6 | 16 | > 90 | -1 | -1 | 1.6 | 10 | –
COc1ccc(CCN(C)CCCN(Cc2ccccc2[N+](=O)[O-])c2ccc(OC)c(OC)c2)cc1OC [Example E1] | 0% | -2% | -3 | 1.6 | 10 | – | – | – | – | – | – | – | active
COc1ccc(CCN(C)CCCN(C(=O)CCc2ccccc2)c2ccc(OC)c(OC)c2)cc1OC [Example E15, (N-[5,4-Dimethoxyphenyl]-N-3-[N'-2-(3,4-dimethoxyphenyl)-ethyl-N'-methylamino]-propyl)-(3-phenyl)propanoic acid amide] | -8% | -7% | -7 | 1.6 | 10 | – | – | – | – | – | – | – | –
CCCNC(=O)N(CCCN(C)CCc1ccc(OC)c(OC)c1)c1ccc(OC)c(OC)c1 [Example E27, (N-[3,4-Dimethoxyphenyl]-N-3-[N'-2-(3,4-dimethoxyphenyl)-ethyl-N'-methylamino]-propyl)-N"-n-propyl-urea] | -4% | -2% | -1 | 6.4 | 5 to 10 | – | – | – | – | – | – | – | –
CCCCOC(=O)N(CCCN(C)CCc1ccc(OC)c(OC)c1)c1ccc(OC)c(OC)c1 [Example E24, (N-[3,4-Dimethoxyphenyl]-N-3-[N'-2-(3,4-dimethoxyphenyl)-ethyl-N'methylamino]-propyl)-n-butyl-urethane] | -15% | -13% | -8 | 3.2 | 10 | – | – | – | – | – | – | – | –
COc1ccc(CCN(C)CCCN(C(=O)Oc2ccccc2)c2ccc(OC)c(OC)c2)cc1OC [Example E25, (N-[3,4-Dimethoxyphenyl]-N-3-[N'-2-(3,4-dimethoxyphenyl)-ethyl-N'-methylamino]-propyl)-phenyl-urethane] | -14% | -10% | -2 | 0.8 | 10 | – | – | – | – | – | – | – | –
